Assay results published in article PMC3850815, “Molecular details of ligand selectivity determinants in a promiscuous β-glucan periplasmic binding protein” (BMC Structural Biology, 2013).

B1: Thermotoga maritima cellobiose binding protein (natural protein)
chain: QVSLPREDTVYIGGALWGPATTWNLYAPQSTWGTDQFMYLPAFQYDLGRDAWIPVIAERYEFVDDKTLRIYIRPEARWSDGVPITADDFVYALELTKELGIGPGGGWDTYIEYVKAVDTKVVEFKAKEENLNYFQFLSYSLGAQPMPKHVYERIRAQMNIKDWINDKPEEQVVSGPYKLYYYDPNIVVYQRVDDWWGKDIFGLPRPKYLAHVIYKDNPSASLAFERGDIDWNGLFIPSVWELWEKKGLPVGTWYKKEPYFIPDGVGFVYVNNTKPGLSDPAVRKAIAYAIPYNEMLKKAYFGYGSQAHPSMVIDLFEPYKQYIDYELAKKTFGTEDGRIPFDLDMANKILDEAGYKKGPDGVRVGPDGTKLGPYTISVPYGWTDWMMMCEMIAKNLRSIGIDVKTEFPDFSVWADRMTKGTFDLIISWSVGPSFDHPFNIYRFVLDKRLSKPVGEVTWAGDWERYDNDEVVELLDKAVSTLDPEVRKQAYFRIQQIIYRDMPSIPAFYTAHWYEYSTKYWINWPSEDNPAWFRPSPWHADAWPTLFIISKKSDPQPVPSWLGTVDEGGIEIPTAKIFEDLQKATM
notes: final crystal models hold 582 amino acids; expected mass 68.7 kDa; the apo (ligand-free) form was used for the SANS measurement of self-association; also called tmCBP

What was measured:
[1] = biological target: T1, tmCBP (Thermotoga maritima cellobiose-binding protein) (Thermotoga maritima, UniProt Q9WXN8); experiment: small-angle neutron scattering, ligand-induced closure; settings: 5 mM ligand, 20 mM Tris pH 8.0, 40 mM NaCl, D2O, 20 °C
T1 construct: gene TM_0031; recombinant, E. coli BL21-RIL, nickel chelation purification (tagged); 582 residues modelled; ligand-free protein from Enfor's minimal medium

[2] = biological target: T1, tmCBP (Thermotoga maritima cellobiose-binding protein); experiment: CD thermal denaturation at […] nm; settings: Tm without ligand 94.8 °C; 1 mM ligand, 0.5 μM protein, 2 M guanidine hydrochloride, 10 mM Tris-HCl pH 8.0, 40 mM NaCl
[3] = biological target: the molecule itself; experiment: small-angle neutron scattering (SANS); tmCBP at 4.2-16.7 mg/mL in 20 mM Tris pH 8.0, 40 mM NaCl, 100% D2O, 20°C; molecular mass from the intensity at zero scattering angle; apo protein, and with 5 mM cellobiose added (associations then alleviated)

Molecule	Tm [2]	also measured
OC[C@H]1O[C@@H](O[C@H]2[C@H](O)[C@@H](O)C(O)O[C@@H]2CO)[C@H](O)[C@@H](O)[C@@H]1O (stereo partly shown) [cellobiose]	–	small-angle neutron scattering, ligand-induced closure [1]: Upon addition of ligand the protein undergoes large scale conformational changes
OC[C@H]1O[C@@H](O[C@H]2[C@H](O)[C@@H](CO)OC(O)[C@@H]2O)[C@H](O)[C@@H](O)[C@@H]1O (stereo partly shown) [LR2, laminaribiose]	99.2 °C	–
OC[C@H]1O[C@@H](O[C@@H]2[C@@H](O)[C@H](O[C@@H]3[C@@H](O)[C@H](O[C@@H]4[C@@H](O)[C@H](O[C@H]5[C@H](O)[C@@H](CO)OC(O)[C@@H]5O)O[C@H](CO)[C@H]4O)O[C@H](CO)[C@H]3O)O[C@H](CO)[C@H]2O)[C@H](O)[C@@H](O)[C@@H]1O (stereo partly shown) [LR5, laminaripentaose]	105.2 °C	–
B1	–	binding result [3]: binds
